{
  "source": "paper PMC4798879",
  "about": "(Nature chemical biology, 2016)",
  "key": {"[1]": {"test_system": "SCD (p37 and p30)"}, "[2]": {"test_system": "H2122 cells", "assay": "Compound stability in cell lines, H2122", "type": "in vitro ADME, human"}, "[3]": {"test_system": "panel of 12 NSCLC cell lines", "assay": "Concentration-response toxicity across panel of NSCLC cell lines", "type": "cell-based, human"}, "[4]": {"test_system": "sebocytes", "assay": "In vivo toxicity study, sebocytes in skin of CD-1 mice", "set-up": "species or system mouse", "conditions": "20 mg/kg once a day for two weeks"}, "[5]": {"assay": "Pharmacokinetic studies in CD-1 mice", "type": "in vivo, mouse", "conditions": "6 and 20 mg/kg"}, "[6]": {"test_system": "H2122 derived tumors", "assay": "Xenograft experiment, H2122 derived tumors in Nod-Scid mice", "type": "in vivo, mouse", "conditions": "20 mg/kg once daily"}, "[7]": {"assay": "Body weight loss in xenograft experiments", "type": "in vivo, mouse", "conditions": "once daily dosing"}, "[8]": {"test_system": "H2122", "assay": "Compound concentration response, viability", "type": "cell-based, human", "conditions": "read-out: IC50 (concentration that resulted in 50% less viability); H2122 cells"}},
  "data": [
    {"smiles": "CCCCc1ccc(N=CNO)c(C)c1", "note": "[HET0016]", "values": [
      {"measurement": "effect on binding of SW208108 to SCD", "setting": "[1]; H2122, 0.1 µM SW208108", "result": "inhibited the binding of SW208108 to SCD in a dose dependent fashion"},
      {"measurement": "effect on ability of dMe-SW208108 to bind SCD", "setting": "[1]; H2122, 0.1 µM dMe-SW208108", "result": "no effect"},
      {"measurement": "effect on SW208108 metabolism", "setting": "[2]", "result": "inhibited both the loss of SW208108 and the generation of dMe-SW208108"}
    ]},
    {"smiles": "COc1ccc(CCNC(=O)C(=O)Nc2ccc(Cl)cc2)cc1", "note": "[SW027951]", "values": [
      {"measurement": "toxicity in eight of the remaining ten cell lines", "setting": "[3]; 6 μM", "result": "insensitive"},
      {"measurement": "toxicity in HCC44 and HCC95", "setting": "[3]; HCC44 and HCC95 cell lines", "result": "intermediate toxicity"}
    ]},
    {"smiles": "O=C(NCCC1CC1)c1ccc(N2CCN(C(=O)c3cc(F)ccc3C(F)(F)F)CC2)nn1", "note": "[Xenon-45]", "values": [
      {"measurement": "sebocytes in hair follicles of skin", "setting": "[4]", "result": "devoid of sebocytes"},
      {"measurement": "pharmacokinetic properties", "setting": "[5]", "result": "favorable pharmacokinetic properties"},
      {"measurement": "growth of H2122 tumors", "setting": "[6]", "result": "no efficacy"},
      {"measurement": "Weight loss", "setting": "[7]", "result": "up to 7%"},
      {"measurement": "IC50", "setting": "[8]", "result": 95, "unit": "nM"}
    ]}
  ]
}
